{
  "source": "patent US6803233B2",
  "about": "“Model for Alzheimer's disease and other neurodegenerative diseases” (priority 2000, dated 2004)",
  "key": {"[1]": {"tested_on": "tau protein", "conditions": "literature report; cited from earlier work"}, "[2]": {"tested_on": "cathepsin D", "conditions": "literature report; cited from earlier work"}, "[3]": {"tested_on": "p35", "assay": "Immunoblot of p35 in hippocampal slices from apoE-knockout mice", "assay_type": "cell-based", "conditions": "apoE-knockout mouse slices; mevastatin plus agent"}, "[4]": {"tested_on": "amyloid precursor protein (APP)", "assay": "Immunoblot of APP (antibody 22C11) in hippocampal slices from apoE-knockout mice", "assay_type": "cell-based, mouse", "text": "Tissues were processed for immunoblotting and assessed by monoclonal antibody 22C11, which recognizes the N-terminal domain of amyloid precursor protein (APP). […] Whether this new product is due to proteolysis or changes in protein maturation is under investigation."}, "[5]": {"tested_on": "tangle-like structures", "assay": "AT8 immunostaining of cultured rat hippocampal slices", "assay_type": "cell-based", "conditions": "for number of ZPAD-induced tangles in the presence of the inhibitor: hippocampal slices, ZPAD plus inhibitor, 6 days", "quoted_text": "Cultured slices were stained with anti-phosphorylated tau antibody AT8.\n(§1) Cultures of hippocampal slices were prepared from 10-12 days old rats.\nCultured rat hippocampal slices of 12 days in vitro were treated with 20 μM pravastatin for 6 days and processed from immunohistological studies with the monoclonal antibody AT8. The subiculum, CA1 field, and CA3 field of the hippocampus were examined by photomicroscopy."}, "[6]": {"tested_on": "tau", "assay": "Immunoblot of tau (tau-1, AT8) in cultured rat hippocampal slices", "assay_type": "cell-based", "quoted_text": "Immunoblotting was carried out by using anti-non phosphorylated tau antibody, tau-1 or anti-phosphorylated tau antibody, AT8.\nas §1"}, "[7]": {"tested_on": "p35", "assay": "Immunoblot of p35/p25 in cultured rat hippocampal slices", "assay_type": "cell-based", "conditions": "6 days", "quoted_text": "Hippocampal slices were collected, homogenized, and subjected to SDS-PAGE electrophoresis. Immunoblots were then probed with anti-p35 sera that were raised against the C-terminal domain of p35.\nas §1"}, "[8]": {"tested_on": "MAPK (ERK1/2)", "assay": "Immunoblot with anti-active MAPK in cultured hippocampal slices", "assay_type": "cell-based", "conditions": "6 days"}, "[9]": {"tested_on": "TGF-beta", "assay": "RT-PCR/northern blot of cytokine mRNA in cultured hippocampal slices", "assay_type": "cell-based"}, "[10]": {"tested_on": "IL-10", "assay": "RT-PCR/northern blot of cytokine mRNA in cultured hippocampal slices", "assay_type": "cell-based", "conditions": "ZPAD 20 μM, mevastatin 20 μM"}, "[11]": {"tested_on": "microglia", "assay": "CD11b immunostaining of hippocampus of rats injected daily with statins", "assay_type": "in vivo, rat", "conditions": "male Sprague-Dawley rats, 10 mg/kg i.p. daily for 39 days", "protocol": "Brains were then removed, postfixed in perfusate for 5-6 hors, and cryoprotected in 15% sucrose/PB followed by 30% sucrose/PB (12-24 hours each) at 4° C. Coronal sections were cut at 20-30 μm by using a freezing microtome and collected into PBS. Immunostaining was performed as described for the in vitro experiments using monoclonal antibody CD11b that reacts with both active and non-active microglia."}, "[12]": {"tested_on": "TNF-alpha", "assay": "RT-PCR/northern blot of cytokine mRNA in cultured hippocampal slices", "assay_type": "cell-based", "conditions": "mevastatin 20 μM", "text": "FIG. 17. Messenger RNA levels of TNF-alpha are increased by interruption of cholesterol synthesis.\nLevels of mRNA for the cytokines were quantified by RT-PCR and northern blot analysis, following protocols outlined in the RT-PCR kit (Ambion Inc.)."}, "[13]": {"tested_on": "APP", "assay": "Immunoblot of APP in hippocampal slices, mevastatin plus kinase inhibitors (Example 8)", "assay_type": "cell-based"}, "[14]": {"tested_on": "reactive microglia", "assay": "ED-1 immunocytochemistry of cultured brain explants", "assay_type": "cell-based, rat", "conditions": "6 days", "protocol": "Immunocytochemical studies using the monoclonal antibody ED-1 that recognizes reactive microglia were used at 1:1000 dilution following standard immunohistochemical procedures. Microglial activation was determined by measuring cell numbers, optical density, and size of cell bodies using the program NIH Image. Brain tissue was cultured for 12 days and treated with ZPAD (20 μM) in the presence or absence of PD98059 (50 μM) for 6 days (FIG. 18). Cultured explants were then sliced and stained by using monoclonal antibody ED-1 which recognizes reactive microglia, a classical marker of inflammation. […] Cultured brain explants were then sliced and stained by using monoclonal antibody ED-1, a classical marker for reactive microglia and macrophages."}},
  "note": "Entries after “also recorded” stand apart in the source; their conditions may differ. Square brackets hold non-standard residues; d marks the D form. Peptide text beside a SMILES is read from it. Nle = CCCC[C@H](N)C(=O)O",
  "data": [
    {"compound": "CCN(CC)CCCC(C)Nc1ccnc2cc(Cl)ccc12", "note": "(stereo not drawn) [chloroquine]", "values": [
      {"measurement": "29 kDa tau fragment (tau 29)", "setting": "[1]", "result": "delayed appearance of a 29 kDa fragment"},
      {"measurement": "enzymatically active cathepsin D", "setting": "[2]", "result": "increases in enzymatically active cathepsin D"}
    ]},
    {"compound": "CC(O)(CCO)CC(=O)O", "note": "(stereo not drawn) [mevalonate]", "values": [
      {"measurement": "mevastatin-induced down regulation of p35 in the presence of the agent", "setting": "[3]", "result": "completely blocked"},
      {"measurement": "effects of mevastatin on APP in the presence of the agent", "setting": "[4]; mevastatin plus agent", "result": "completely blocked"}
    ]},
    {"compound": "CCCC[C@@H](C=O)NC(=O)[C@H](CC(C)C)NC(=O)[C@H](CC(C)C)NC(C)=O", "note": "[calpain inhibitor I, N-acetyl-leucyl-leucyl-norleucinal] (Ac-Leu-Leu-[Nle]-aldehyde)", "values": [
      {"measurement": "number of ZPAD-induced tangles in the presence of the inhibitor", "setting": "[5]", "result": "significantly reduced"},
      {"measurement": "ZPAD-induced tau fragments (tau 15-35 / tau 29 and tau 40) in the presence of the inhibitor", "setting": "[6]; ZPAD plus inhibitor, 6 days, 2 separate experiments", "result": "almost completely blocked"},
      {"measurement": "ZPAD-induced conversion of p35 to p25 in the presence of the inhibitor", "setting": "[7]; ZPAD plus inhibitor", "result": "significantly inhibited"}
    ]},
    {"compound": "CC[C@H](C)C(=O)O[C@H]1CCC=C2C=C[C@H](C)[C@H](CC[C@@H]3C[C@@H](O)CC(=O)O3)[C@H]21", "note": "[mevastatin]", "values": [
      {"measurement": "induction of AT8-immunoreactive tangle-like structures", "setting": "[5]; rat hippocampal slices, agent applied for 6 days", "result": "moderately increased; also recorded: resulted in tangle-like structures"},
      {"measurement": "activated MAPK (ERK1/2)", "setting": "[8]; hippocampal slices", "result": "activated; also recorded: increased; also recorded: activation"},
      {"measurement": "phosphorylated 33 kDa tau breakdown products (AT8 blot)", "setting": "[6]; rat hippocampal slices", "result": "markedly enhanced"},
      {"measurement": "mRNA levels of TGF-beta", "setting": "[9]; ZPAD 20 μM, mevastatin 20 μM", "result": "increased"},
      {"measurement": "mRNA levels of IL-10", "setting": "[10]", "result": "increased"},
      {"measurement": "microglial reactions", "setting": "[11]", "result": "induced; also recorded: Induction of microglial reactions"},
      {"measurement": "levels of p35", "setting": "[7]; hippocampal slices", "result": "significant decreases; also recorded: rapidly and markedly decreased; also recorded: reduced"},
      {"measurement": "levels of full length APP", "setting": "[4]; mevastatin treatment", "result": "increased levels"},
      {"measurement": "novel APP band with molecular weight slightly lower than native APP", "setting": "[4]; mevastatin treatment", "result": "induced a novel band"},
      {"measurement": "levels of full length APP", "setting": "[4]; mevastatin treatment, listed as Mevastatin", "result": "markedly increased"},
      {"measurement": "mRNA level of TNF-alpha", "setting": "[12]", "result": "markedly increase"}
    ]},
    {"compound": "COc1cccc(-c2cc(=O)c3ccccc3o2)c1N", "note": "[PD98059, 2-2(Amino-3-methoxyphenyl)-4H-1-benzopyran-4-one]", "values": [
      {"measurement": "effects of mevastatin on APP in the presence of the inhibitor", "setting": "[13]", "result": "partially blocked"},
      {"measurement": "number of ZPAD-induced tangles in the presence of the inhibitor", "setting": "[5]", "result": "significantly reduced"},
      {"measurement": "MAPK activation by mevastatin and ZPAD in the presence of the inhibitor", "setting": "[8]", "result": "blocked"},
      {"measurement": "mRNA levels for certain cytokines (FIG. 16)", "setting": "[9]; PD98059 treatment", "result": "decreased"},
      {"measurement": "ZPAD-induced reaction of microglia with co-application of the inhibitor", "setting": "[14]; ZPAD 20 μM plus PD98059 50 μM", "result": "completely blocked"},
      {"measurement": "reaction of microglia (ED-1 staining)", "setting": "[14]; ZPAD 20 μM, mevastatin 20 μM or PD98059 50 μM alone", "result": "did not induce evident change in microglia"}
    ]}
  ]
}
